Measurements published in US8187278B2, “Photodynamic cellular and acellular organism eradication utilizing a photosensitive material and benzalkonium chloride” (Advanced Photodynamic Technologies, Inc., priority 1998, dated 2012).
Like-named read-outs stand apart in the source and are kept apart here.

Assays:
[1] = tested on: several species of bacteria; test: photoeradication using methylene blue mediated PDT and the surfactant benzalkonium chloride (FIG. 2), qualitative colony count; type: cell-based; details: diode laser about 664 nm, 100 mw/cm^2, 30 to 40 J/cm^2; methylene blue 0 to 100 μg/ml, benzalkonium chloride 0 to 0.01%; topically applied
Description: One particular treatment protocol according to the present invention utilizes the photosensitive material methylene blue and surfactant benzalkonium chloride. Benzalkonium chloride concentrations from 0.001% to 0.5% have been identified as advantageous in the destruction of certain microorganisms, such as Candida albicans, Escherechia coli, Pseudomonas aeruginosa, Staphylococcus aureus, Klebsellia, Serratia,Haemophilus influenza, and Streptococcus pneumoniae. Reference may be made to FIG. 2, which illustrates a schedule of investigation results. […] The laser used for illumination was a diode laser. Methylene blue concentrations ranged from 0 to 100 μg/ml. Benzalkonium chloride concentrations ranged from 0 to 0.01%. The combined solution was topically applied at the cell site. A light dosage rate was 100 mw/cm^2. Light dosages ranged from 30 to 40 J/cm^2. A qualitative colony count relates particular colony counts to an associated score.

[2] = cited from earlier work
[3] = cited from earlier work; remark: listed apart in the source

Row | Molecule | sensitization of bacteria to killing by laser irradiation [1] | toxic effects on administration in high doses ([2]; humans, orally and intravenously, high doses) | tissue toxicity ([2]; in vivo) | yield of the singlet oxygen generation ([3]; pH 5) | yield of the singlet oxygen generation ([3]; pH 9)
1 | alkyl dimethyl benzylammonium chloride [benzalkonium chloride] | alone neither the surfactant nor the photosensitizing agent sensitized the bacteria to killing by laser irradiation |  |  |  | 
2 | CN(C)c1ccc2nc3ccc(=[N+](C)C)cc-3sc2c1 [methylene blue] | alone neither the surfactant nor the photosensitizing agent sensitized the bacteria to killing by laser irradiation | without any toxic effects | very low tissue toxicity | 0.2 | 0.94
